Test results: paper PMC1828167, “HIV-1 integrase inhibitors are substrates for the multidrug transporter MDR1-P-glycoprotein” (Retrovirology, 2007)
One block for each compound: values may come before it.

Columns and labels:
[1] = tested on: P-gp expression in CEMrev cells; assay: Induction of P-gp expression in CEMrev cells (flow cytometry); assay type: cell-based, human; settings: for % of P-gp expressing cells: CEMrev
Source text: Similarly to some of the isozymes involved in drug metabolism, the expression of P-gp is inducible. It is therefore important to assess whether P-gp induction occurs upon exposure to IINs, with potential implications for drug metabolism. To this aim, we investigated whether the treatment with the IINs RDS 1974, RDS 1983, RDS 1984 and RDS 1996, all having different biological and physicochemical properties (Table 1), modulate P-gp expression in the human CD4+ CEM cell system. The parental drug sensitive CEM cell line and the revertant of its derivative CEM-VBL10 MDR cell variant (CEMrev), expressing very low or undetectable amount of P-gp, were cultured in the presence of the indicated IINs ([…]; 25 μg/ml for RDS 1983 and RDS 1984) for 28 days (RDS 1983, RDS 1984 and RDS 1996) or 104 days (RDS 1974). As a control for P-gp modulation, CEMrev cells were exposed to VBL, shown to increase P-gp expression.
The multidrug resistant (MDR) variants CEM-VBL10 and CEM-VBL100 cells were isolated by stepwise selection of the parental drug sensitive CCRF-CEM (CEM) in the presence of increasing concentrations of VBL [31, 32]. Cells were grown under standard conditions for mammalian cells cultured in suspension. The basic medium (BM) for cell culturing consisted of RPMI-1640 supplemented with 10% foetal calf serum (FCS), L-glutamine (2 mM) penicillin (100 U/mL) and streptomycin (100 U/mL). All these components were purchased from Hyclone (Logan, Utah). Identical BM, culture conditions and trypsin (Hyclone) were used for the adherent MDR variant KB.V1 of the human oral epidermoid carcinoma KB cells. To test the ability of selected IINs (RDS 1974, […], RDS 1984 and RDS 1996) to induce de novo expression of P-glycoprotein, the drug-sensitive CEMrev cell line was used; this cell line derives from the CEM-VBL10 MDR cell line, cultured for more than 2 years in VBL-free medium and expresses very low (1–3%) or undetectable amounts of P-gp.
(§1) The anti CD4-FITC mAb was purchased from Vinci Biochem, Firenze, Italy. The mAb UIC2 [30] was kindly provided by Dr. E. Mechetner (Chemicon Inc, Temecula, CA). For determination of P-gp expression, the mAb MM4.17, recognizing an extracellular P-gp epitope on intact/living human MDR cells, was also used. Both UIC2 and MM4.17 mAbs were used in a highly purified form.

[2] = target: T1, MDR1-P-glycoprotein (P-gp) (Homo sapiens, UniProt P08183); assay: UIC2 shift assay (P-gp functional conformation) in CEM-VBL10 cells; assay type: cell-based; parameters: CEM-VBL10 and CEM-VBL100 cells were isolated by stepwise selection of the parental drug sensitive CCRF-CEM (CEM) in the presence of increasing concentrations of VBL; endogenous in cells; host or cells: CEM-VBL10 (UIC2 shift assay) and CEM-VBL100 (doxorubicin efflux assay), MDR variants of CCRF-CEM; key to UIC2 epitope up-modulation (A): the + or ++ symbols indicate arbitrary units in measuring and differentiating the level of UIC2 epitope modulation and doxorubicin retention; the + or ++ symbols indicate arbitrary units in measuring and differentiating the level of UIC2 epitope modulation and doxorubicin retention; settings: for mAb UIC2 reactivity: 37°C (Fig 1)
T1 sequence (P08183 whole entry): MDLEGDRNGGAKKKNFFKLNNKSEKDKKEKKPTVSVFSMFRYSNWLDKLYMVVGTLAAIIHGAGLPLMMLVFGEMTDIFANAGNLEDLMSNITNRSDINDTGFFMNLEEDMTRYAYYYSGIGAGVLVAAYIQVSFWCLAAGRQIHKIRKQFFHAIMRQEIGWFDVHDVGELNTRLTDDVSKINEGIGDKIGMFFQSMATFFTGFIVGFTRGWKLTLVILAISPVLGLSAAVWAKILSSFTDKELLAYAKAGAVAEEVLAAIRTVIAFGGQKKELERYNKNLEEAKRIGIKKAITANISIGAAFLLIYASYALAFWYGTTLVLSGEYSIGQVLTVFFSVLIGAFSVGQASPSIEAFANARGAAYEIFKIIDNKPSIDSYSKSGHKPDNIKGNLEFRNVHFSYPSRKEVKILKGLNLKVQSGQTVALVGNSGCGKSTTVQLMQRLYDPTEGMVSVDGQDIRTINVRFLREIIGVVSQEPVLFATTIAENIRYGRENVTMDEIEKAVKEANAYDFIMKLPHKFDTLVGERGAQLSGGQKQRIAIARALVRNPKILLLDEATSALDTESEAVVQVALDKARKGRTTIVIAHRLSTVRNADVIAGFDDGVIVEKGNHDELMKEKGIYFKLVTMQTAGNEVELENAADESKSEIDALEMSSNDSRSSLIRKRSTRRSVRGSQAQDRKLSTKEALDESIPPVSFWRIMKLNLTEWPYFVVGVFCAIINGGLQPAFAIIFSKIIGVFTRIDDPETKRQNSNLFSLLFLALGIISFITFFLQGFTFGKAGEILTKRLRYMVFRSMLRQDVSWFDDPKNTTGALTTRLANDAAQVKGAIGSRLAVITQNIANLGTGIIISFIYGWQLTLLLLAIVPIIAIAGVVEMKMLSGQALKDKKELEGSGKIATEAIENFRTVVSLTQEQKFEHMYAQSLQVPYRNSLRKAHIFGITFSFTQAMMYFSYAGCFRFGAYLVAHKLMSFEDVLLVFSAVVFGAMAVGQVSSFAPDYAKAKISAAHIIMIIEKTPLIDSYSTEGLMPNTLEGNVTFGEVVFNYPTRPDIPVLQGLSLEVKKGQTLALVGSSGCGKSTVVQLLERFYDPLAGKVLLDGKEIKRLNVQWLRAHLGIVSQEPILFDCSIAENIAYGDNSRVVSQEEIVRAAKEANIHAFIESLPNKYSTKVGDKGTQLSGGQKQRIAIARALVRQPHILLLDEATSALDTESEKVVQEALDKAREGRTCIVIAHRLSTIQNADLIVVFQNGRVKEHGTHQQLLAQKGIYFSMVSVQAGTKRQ
Procedure: as §1
The UIC2 shift assay was performed under physiological conditions as previously described. CEM-VBL10 cells (1 × 10^6) were resuspended in 1 ml of PBS containing 2% FCS and allowed to equilibrate at 37°C in a water bath for 10 min. The various IINs were added to samples (final concentrations 100 or 50 μg/ml) and incubated for additional 15 min at 37°C with purified UIC2 mAb (final concentration 12.5 μg/ml). VBL (10 μg/ml), which is a well known UIC2 shifting agent, and the drug diluents were used as positive and negative controls, respectively. Cells were then washed twice in ice-cold PBS containing 2% FCS with 0.01 % sodium azide (Shift Stop Buffer, SSB), stained on ice in SSB for additional 15 min with 5 μg/ml of fluorescein -conjugated goat-antimouse antibody (FITC-GAM, Cappel, West Chester, Pa, USA), washed twice with ice cold PBS/FACS and maintained in ice until flow cytometry analysis. The UIC2 shift is the difference between UIC2 binding in the presence versus the absence of the IINs under physiological conditions (37°C).

[3] = tested on: HTLVIIIB laboratory strain of HIV-1 virus; assay: Anti-HIV activity in HIV-infected H9 cells (p24 antigen ELISA); assay type: cell-based; settings: HIV infected H9 cell line, 3 days, 50% Effective Concentration
Procedure: (§2) Anti-HIV activity was measured in the human T lymphoid H9 cells. To this purpose, cells were cultured in RPMI 1640, supplemented with 2 mM L-glutamine, penicillin, streptomycin and 10% fetal bovine serum (FBS), and infected with the HTLVIIIB laboratory strain of HIV-1 virus (100000 TCID50 – Tissue Culture Infective Dose- per 10^6 […]). After two hours of incubation, cells were washed with medium, and cultured at 37°C (5000 cells/well in 96-well microplates) for 3 days in presence of medium and test compounds at concentrations ranging from 50 μM to 0.1 μM. After 3 days p24 antigen concentration in the supernatants was measured by an ELISA assay (Innotest HIV antigen mAb, Innogenetics NV Belgium). Cell viability was determined by the trypan blue exclusion method.
(§3) The 50% inhibitory drug concentration (IC50) and the 50% cytotoxic drug concentration (CC50) were calculated by the median effect equation using Calcusyn Version 2.0 program (Biosoft Cambridge)

[4] = Cytotoxicity in HIV infected H9 cell line (trypan blue exclusion); assay type: cell-based, human; settings: human, HIV-1 (HTLVIIIB) infected H9 T lymphoid cells, 50% Cytotoxic Concentration
Procedure: as §2, §3

[5] = tested on: P-gp expression in CEM cells; assay: Induction of P-gp expression in parental drug sensitive CEM cells (flow cytometry); assay type: cell-based, human; settings: 25 μg/ml, 28 days of culture
Source text: Similarly to some of the isozymes involved in drug metabolism, the expression of P-gp is inducible. It is therefore important to assess whether P-gp induction occurs upon exposure to IINs, with potential implications for drug metabolism. To this aim, we investigated whether the treatment with the IINs RDS 1974, RDS 1983, RDS 1984 and RDS 1996, all having different biological and physicochemical properties (Table 1), modulate P-gp expression in the human CD4+ CEM cell system. The parental drug sensitive CEM cell line and the revertant of its derivative CEM-VBL10 MDR cell variant (CEMrev), expressing very low or undetectable amount of P-gp, were cultured in the presence of the indicated IINs (10 μg/ml for RDS 1974 and RDS 1996; 25 μg/ml for RDS 1983 and RDS 1984) for 28 days (RDS 1983, RDS 1984 and RDS 1996) or 104 days (RDS 1974). As a control for P-gp modulation, CEMrev cells were exposed to VBL, shown to increase P-gp expression.
The multidrug resistant (MDR) variants CEM-VBL10 and CEM-VBL100 cells were isolated by stepwise selection of the parental drug sensitive CCRF-CEM (CEM) in the presence of increasing concentrations of VBL [31, 32]. Cells were grown under standard conditions for mammalian cells cultured in suspension. […]

HIV-1 Integrase (IN) = target: HIV-1 Integrase (IN); parameters: method as in PMID 16539381; settings: HIV-1 integration strand transfer step; 50% Inhibitory Concentration; cited from earlier work
[6] = target: T1, MDR1-P-glycoprotein (P-gp); assay: Doxorubicin efflux/retention in KB-V1 MDR cells (confocal microscopy); settings: 25 μg/ml, 5 μg/ml doxorubicin, 1 and 3 hrs of extrusion
[7] = target: T1, MDR1-P-glycoprotein (P-gp); assay: MDR efflux assay: doxorubicin efflux inhibition in CEM-VBL100 cells (flow cytometry); assay type: cell-based; parameters: CEM-VBL10 and CEM-VBL100 cells were isolated by stepwise selection of the parental drug sensitive CCRF-CEM (CEM) in the presence of increasing concentrations of VBL; endogenous in cells; host or cells: CEM-VBL10 (UIC2 shift assay) and CEM-VBL100 (doxorubicin efflux assay), MDR variants of CCRF-CEM; key to Doxorubicin efflux inhibition (B): the + or ++ symbols indicate arbitrary units in measuring and differentiating the level of UIC2 epitope modulation and doxorubicin retention; the + or ++ symbols indicate arbitrary units in measuring and differentiating the level of UIC2 epitope modulation and doxorubicin retention; settings: for Doxorubicin efflux inhibition (B): CEM-VBL100 cells
Procedure: […] The cells were incubated with doxorubicin (10 μg/ml) only or drug diluent in parallel cultures. At the end of incubation, the cells were washed in serum-free medium and resuspended in BM in the presence of the IINs or Verapamil (drug diluent was added in control samples) for a further 1 h at 37°C. Finally, cells were washed twice with ice-cold PBS/FACS, and analyzed in a flow cytometer (FACScan, Becton Dickinson, San Josè, CA).

H9 cells = assay: Cytotoxicity in HIV infected H9 cell line (trypan blue exclusion); assay type: cell-based, human; settings: 50% Cytotoxic Concentration
Procedure: as §2, §3

- mAb UIC2 reactivity ([2]; 10 μg/ml): increased
SMILES: CC[C@]1(O)C[C@@H]2CN(CCc3c([nH]c4ccccc34)[C@@](C(=O)OC)(c3cc4c(cc3OC)N(C)[C@H]3[C@@](O)(C(=O)OC)[C@H](OC(C)=O)[C@]5(CC)C=CCN6CC[C@]43[C@@H]65)C2)C1 [Vinblastine]
- P-gp expression (in words) ([1]; CEMrev cell line, compared with the drug diluent control): strong induction of P-gp expression
- % of P-gp expressing cells ([1]; 10 μg/ml, 28 days of culture): 30–35%
- % of P-gp expressing cells ([1]; 10 μg/ml, 104 days of culture): 60–70%

SMILES: O=C(O)/C(O)=C/C(=O)c1cn(Cc2c(F)cccc2F)c2ccccc2c1=O [RDS 1984]
- EC50 ([3]; Human immunodeficiency virus 1, 72 h): 9.64 µM
- CC50 at 3 days [4]: > 50 µM
- % of P-gp expressing cells [5]: 0%
- % of P-gp expressing cells ([1]; 25 μg/ml, 28 days of culture): 15–18%
- IC50 (HIV-1 Integrase (IN)): 0.019 µM
- doxorubicin retention [6]: doxorubicin was retained
- mAb UIC2 reactivity ([2]; 50 μg/ml): increased
- intracellular accumulation of doxorubicin ([7]; CEM-VBL100 MDR cells, 1 μg/ml to 100 μg/ml (Fig 2)): intracellular accumulation of doxorubicin with a dose dependent effect

SMILES: O=C(O)C(=O)/C=C(\O)c1ccc2c(c1)c(=O)c(/C(O)=C/C(=O)C(=O)O)cn2Cc1ccc(F)cc1 [RDS 1997]
- EC50 [3]: 2.44 µM
- CC50 (H9 cells): > 50 µM
- UIC2 epitope up-modulation (A) ([2]; 50 μg/ml): +
- UIC2 epitope up-modulation (A) ([2]; 100 μg/ml): ++
- Doxorubicin efflux inhibition (B) ([7]; 25 μg/ml): +
- Doxorubicin efflux inhibition (B) ([7]; 50 μg/ml): ++
